Test results as given in patent US20260152777A1, “METHOD FOR PRODUCING EPIGALLOCATECHIN GALLATE MONOGLUCOSIDE” (GIVAUDAN SA, priority 2022, published 2026).
Entries after “also recorded” stand apart in the source; their conditions may differ.

How the values were obtained:
[1] = tested on: Asian volunteers with dull skin and large senescence spots; assay: Clinical study: ultrasound measurement of dermis density using DUB SkinScanner; assay type: in vivo, human; details: for Dermis density Mean +/− SD / Dermis density change vs D 0: cream with 2% ascorbic acid, hemiface, Asian women
From the text: For this study, volunteers applied the cream twice a day for 56 days.
GLYCOL, DIMETHICONE, FRAGRANCE
Volunteers were divided into two groups as follows: • Group 1: 20 Asian women testing the active cream in comparison to the placebo cream with an average age of 54±5 years. • Group 2: 18 Asian women testing the vitamin C cream in comparison to the placebo cream with an average age of 53±8 years.
Volunteers applied a cream containing 0.4% of active, 2% of ascorbic acid (vitamin C), respectively, on one hemiface and a placebo cream on the other hemiface […] for 56 days.
During this study, a skin color and spots analysis was conducted using Colorface®, biomechanical properties were tested using Cutometery®, and the dermis thickness was determined using a DUB SkinScanner 75® probe (max. depth of 3.28 mm).
The DUB Skin Scanner system is a high-frequency, high-resolution ultrasound diagnostic tool for use in dermatology, cosmetics and pharmaceuticals and clinical research. 75 MHz ultrasound is a popular method for non-invasive skin analysis. High frequency ultrasound (75 MHz) can explore the superficial layers of the skin and can penetrate up to 3 mm into the skin. Skin ultrasound is based on the population of ultrasound in the skin and on the direction and measurement of the amplitudes of the part reflected by the interfaces separating two media having different characteristics of acoustic waves. An ultrasound imaging technique used for the visualization of the structure of the subcutaneous body allows the evaluation of the homogeneity of the skin, including the density and the skin thickness.
Three measurements of thickness and density were taken to obtain an average for each image.
For this study, the analysis of the density of the dermis was carried out on D0, D28 and D56.

[2] = tested on: female volunteers with a dark skin type (phototype IV or more) and dull skin; assay: Clinical evaluation on African skin: skin color by Chromameter L* parameter; assay type: in vivo, human; details: cream 0.4%, full face twice daily; for increase of L* on uneven skin tone area: dark skin type
Method: The clinical study was carried out on 85 female volunteers aged from 19 to 47 years, which were divided in three groups: active, placebo and aglycone. The study was performed in South Africa on female volunteers with a dark skin type (phototype IV or more) and dull skin. All participants provided signed informed consent at the beginning of the study. The study was conducted according to the guidelines of the Declaration of Helsinki. […] Skin color evolution was measured after 14, 28 and 56 days using L* parameter measurement by Chromameter®.
The skin color was evaluated by means of a Chromameter CR400, which measures skin color, and the parameter L* (lightness) was recorded. The greater the value, the lighter the skin color. Depending on the test type, at least three or at least 15 readings were taken at each test sub-site for each time interval to serve as the specific pigmentation sport color measurement component of the study. Skin color was analyzed at D0, D14, D28 and D56.
For all studies in vivo, a Shapiro Wilk test was used to verify whether the raw data followed the Gaussian Law. In case of Normally-distributed data, the mean values were compared using either an unpaired or paired t student test. In case of non-Normally-distributed data, a Wilcoxon (paired) and Kruskal-Wallis test followed by a Mann-Whitney U (unpaired) test were used for paired data and unpaired data, respectively.

[3] = tested on: Normal Human Epidermal Keratinocytes (NHEKs); assay: Antioxidant activity: ROS production in keratinocytes stressed with TBP (DCFH-DA probe); assay type: cell-based; details: at 0.1%; TBP column = 100, Untreated = 27.5
Method: A 96 wells-plate was coated with a collagen I solution at 50 μg/ml. Normal Human Epidermal Keratinocytes (NHEKs) were seeded at 20′000 cells per well with four replicates. Cells were incubated for 24 hours in complete medium (Epilife, Gibco) supplemented with Human keratinocyte growth supplements (HKGS) factor (Gibco) and 1% antibiotics (Sigma) at 37° C. with 5% CO2. […] The evolution of the fluorescence was followed for 1 hour.

[4] = Skin penetration by Raman spectroscopy (ex vivo); assay type: in vitro ADME, human
Method: At the end of the incubation period, the skin explants were frozen in Optimal Cutting Temperature (OCT; VWR) at −80° C. and then cut longitudinally using a cryotome with a thickness of 20 μm. For each explant, 3 tissue sections were selected and deposited on a CaF2 support for Raman imaging analysis. The processing of corrected data maps was performed by using a software based on least squares fitting method that operates in the Matlab environment. This method involves mathematical modeling of reference spectra in the overall spectral image to determine the contribution and distribution of these spectra within the image. The reference spectra were the modelled spectra of the following products: Aglycone, glucoside mixture, 4′-O-α-monoglucoside and untreated skin control.

[5] = tested on: Lactobacillus acidophilus; assay: Growth promotion of Lactobacillus acidophilus (OD600); assay type: cell-based; details: MRS broth 50% in PBS, 48 hours, anaerobic
Method: In order to further investigate the effect of the active of the present invention on bacteria, the growth of Lactobacillus acidophilus in MRS medium supplemented with different concentrations of EGCG MONOG was evaluated for 48 hours.
L. acidophilus (DSM 20079) was cultivated at 37° C. under anaerobic conditions on De Man, Rogosa Sharpe (MRS) agar. After bacterial amplification in culture medium, for each bacterial strain, a bacterial suspension was prepared using the assay medium (MRS broth 50% in PBS) and adjusted to an optical density at 600 nm (OD600 nm) of 0.2. The bacterial suspension was then transferred to 96-well plates, some of which contained the test compounds from 0.015% to 1%. The strain cultivated with powdered milk at 0.01% served as a positive control.
Bacterial cultures were incubated at 37° C. under agitation (˜280 rpm) and under anaerobic condition. OD600 nm were read in kinetic for 48 hours using a microplate spectrophotometer (EPOCH2, BioTek Instruments) to analyze the bacterial growth.
All experimental conditions were performed in triplicate.

| SMILES | Dermis density Mean +/− SD ([1]; D 0 (baseline)) [arbitrary unit] | Dermis density Mean +/− SD ([1]; D 28) [arbitrary unit] | Dermis density change vs D 0 ([1]; D 28) | Dermis density Mean +/− SD ([1]; D 56) [arbitrary unit] | Dermis density change vs D 0 ([1]; D 56) | increase of L*, global skin color, 15 measurements on hemi face ([2]; dark skin type, 14, 28 and 56 days) | increase of L* on uneven skin tone area ([2]; after 14 days) | increase of L* on uneven skin tone area ([2]; after 28 days) | increase of L* on uneven skin tone area ([2]; after 56 days) | increase of the dermis density ([1]; summary statement, clinical evaluation on Asian volunteers) | ROS, Mean (% of untreated) [3] | skin penetration higher than that of the aglycone ([4]; 2%, 8 hours of topical application, skin explants, relative to aglycone) | skin penetration higher than that of the glucoside mixture ([4]; 2%, 8 hours of topical application, skin explants, relative to glucoside mixture) | quantity accumulated in the skin relative to the aglycone ([4]; at depth of about 65 µm) | bioavailability in the skin ([4]; compared to aglycone (and glucoside mixture)) | depth of accumulation in the skin / skin penetration depth ([4]; skin explants, Raman) | increase of growth of Lactobacillus acidophilus vs culture without EGCG MONOG ([5]; 0.13%) [%] | increase of growth of Lactobacillus acidophilus vs culture without EGCG MONOG ([5]; 0.4%) [%] | increase of growth of Lactobacillus acidophilus vs culture without EGCG MONOG ([5]; 1%) [%] |
| --- | --- | --- | --- | --- | --- | --- | --- | --- | --- | --- | --- | --- | --- | --- | --- | --- | --- | --- | --- |
| O=C1O[C@H]([C@@H](O)CO)C(O)=C1O [Ascorbic acid, ascorbic acid] | 37.7 ± 8.1 | 39.1 ± 8.3 | +3.8% | 40.7 ± 9.2 | +7.2% | – | – | – | – | – | – | – | – | – | – | – | – | – | – |
| O=C(O[C@@H]1Cc2c(O)cc(O)cc2O[C@@H]1c1cc(O)c(O[C@H]2O[C@H](CO)[C@@H](O)[C@H](O)[C@H]2O)c(O)c1)c1cc(O)c(O)c(O)c1 [epigallocatechin gallate 4′-O-α-monoglucoside] | – | – | – | – | – | up to +6.8% | +1.3% | +4.7% | +6.3% | up to 16.6% | 33.75 % of untreated | +90% | +20% | almost double that of the aglycone | better skin bioavailability than the aglycone and the glucoside mixture; also recorded: much higher bioavailability in the skin than the respective aglycones | about 65 µm | 6 | 9 | 27 |
